The subject of data set [1] is High Five cells. Here is the method: High Five cells (Thermo Fisher Scientific, Express Five™ SFM) were seeded at a seeding concentration of 1×10^6 cells/mL so as to satisfy a culture scale of 30 mL. Twenty-four hours after the initiation of culture, calcium chloride was added so as to increase a final concentration by 1, 10 and 100 mM. Here, a calcium chloride-free group was used as a control. From day 3 to 5, the cell culture solution was sampled and stained with a 0.2% trypan blue solution. The numbers of viable cells and dead cells were counted by a hemocytometer. From the total cell count and the viable-cell count, the rate of viable cells was calculated.

The test system of data set [2] is High Five cells. Conditions: for VP1 band intensity (relative value): MOI=0.1, day 4 supernatant, negative control = 100%. Here is the method:
High Five cells (Thermo Fisher Scientific, Express Five™ SFM) were seeded at a seeding concentration of 1×10^6 cells/mL so as to satisfy a culture scale of 30 mL.

The subject of data set [3] is High Five cells. Conditions: MOI=0.5, day 4 supernatant; for improvement of the yield of the recombinant protein: relative to absence of calcium chloride. Here is the method:
A High Five cell culture solution in which cells were seeded at a seeding concentration of 1×10^6 cells/mL so as to satisfy a culture scale of 30 mL, was infected with a recombinant baculovirus prepared by integrating a gene sequence of a norovirus VP1 protein, at MOI=0.5. On Day 1 after the initiation of culture, calcium chloride was added so as to increase a final concentration by 2.5, 25, 250, 500 and 1 000 μM, and then, the cell culture was continued. On day 3, Benzonase (Merck) was added so as to be a final concentration of 50 U/mL and […] protease inhibitor tablets (Thermo Fisher Scientific) was added, and then, the cell culture was continued. On day 4, the culture supernatant was collected in the same manner as in Example 2 and subjected to Western Blotting.
For Western Blotting, after electrophoresis was carried out in the same manner as in Example 1, a transfer reaction was carried out from the gel to PVDF membrane (Merck) by a semi-dry transfer device (ATTO CORPORATION). After the transfer reaction, the PVDF membrane was soaked in a 10% skim milk-containing TBS and incubated at room temperature for two hours. After the PVDF membrane was washed three times with an appropriate amount of TBS and soaked in an anti-norovirus VP1 protein antibody (manufactured by the inventors) diluted with a 1% skim milk-containing TBST and incubated at 4° C. for from 18 to 20 hours. The PVDF membrane was washed five times with an appropriate amount of TBST, soaked in a HRP-labeled anti-mouse antibody (Jackson Immuno Research Laboratories) diluted with 1% skim milk-containing TBST, and incubated at room temperature for one hour. The PVDF membrane was washed five times with an appropriate amount of TBST and allowed to develop color with Western Lightning-Plus ECL (Perkin Elmer). The PVDF membrane was photographed by an image analyzer (Bio-Rad) and subjected to densitometric analysis.
Densitometric analysis was carried out in the same manner as in Example 1, and the relative amount of VP1 to the condition in the absence of calcium chloride was calculated.

Like-named read-outs stand apart in the source and are kept apart here.

Results on one molecule are retold here after patent US20250051820A1 (priority 2021, published 2025).

For the molecule `[Ca+2].[Cl-].[Cl-]` [calcium chloride], in the data set with High Five cells [1] (High Five cells, day 3 to 5), the “concentration of calcium chloride that is not cytotoxic” value is at most 1000 µM. The viable cell rate result in the data set on High Five cells [1] (calcium chloride final concentration increased by 1 mM, added 24 h after initiation of culture, day 3 to 5, versus calcium chloride-free control) is reported as “the same as in the control”; in the data set with High Five cells [1] (calcium chloride final concentration increased by 10 mM, day 3) it was “low”; with High Five cells [1] (calcium chloride final concentration increased by 100 mM, day 3) it was “low”. The entries for the “VP1 band intensity (relative value)” value with High Five cells [2] (25 μM calcium chloride added 0 hr after infection), in the data set with High Five cells [2] (25 μM calcium chloride added 24 hr after infection) and with High Five cells [2] (25 μM calcium chloride added 48 hr after infection) were 102%, 111% and 102%, respectively. In addition, the “improvement of the yield of a protein of interest” value in the data set on High Five cells [2] (25 μM calcium chloride added 24 hours after the initiation of culture, relative to absence of calcium chloride) is reported as “about 108”. Besides, the “improvement of the yield of the recombinant protein” value in the data set with High Five cells [3] (calcium chloride 25 μM added on Day 1) and with High Five cells [3] (calcium chloride 250 μM added on Day 1) was “about 40%” each time. Also, the “yield of the recombinant protein” value in the data set on High Five cells [3] (calcium chloride 500 μM added on Day 1) and in the data set with High Five cells [3] (calcium chloride 1 000 μM added on Day 1) was “seems to decrease” throughout.
